Assay results from US20060069123A1, “Substituted dipiperidine CCR2 antagonists” (priority 2004, published 2006).
Read-outs that look alike come from different tables or passages of the source.

Experiments:
THP-1 cells [1] = test: MCP-1 Induced Chemotaxis in THP-1 Cells; assay type: cell-based; settings: THP-1 cells, MCP-1 0.01 μg/mL, 3 hours, read-out: Inhibition of MCP-1 Induced Chemotaxis IC50
CCR2 = molecular target: T1, CCR2 (Homo sapiens, UniProt P41597)
T1 sequence (P41597 1-360 isoform P41597-2): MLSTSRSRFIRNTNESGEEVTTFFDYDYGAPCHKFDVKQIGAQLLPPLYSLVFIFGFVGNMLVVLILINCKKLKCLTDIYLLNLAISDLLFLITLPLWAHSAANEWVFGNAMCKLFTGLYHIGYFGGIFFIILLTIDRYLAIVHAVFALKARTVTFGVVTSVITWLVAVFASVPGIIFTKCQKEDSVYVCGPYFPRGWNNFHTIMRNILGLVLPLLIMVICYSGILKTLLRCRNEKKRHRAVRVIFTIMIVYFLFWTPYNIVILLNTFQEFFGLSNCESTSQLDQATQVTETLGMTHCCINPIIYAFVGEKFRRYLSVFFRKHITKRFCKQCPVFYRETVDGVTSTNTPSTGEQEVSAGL

THP-1 cells [2] = tested on: THP-1 cells
[3] = Homo sapiens, THP-1, read-out: Inhibition of MCP-1 Induced Calcium Ion Influx IC50

Row | SMILES | IC50 (THP-1 cells [1]; Homo sapiens) | IC50 (CCR2) | IC50 (THP-1 cells [2]; [3]) | also measured
1 | O=C(/C=C/c1cc(F)c(F)c(F)c1)N1CCC(C(CO)N2CCC(c3c[nH]c4ncccc34)CC2)CC1 (stereo not drawn) [Cpd 153, (2E)-1-(4-{2-hydroxy-1-[4-(1H-pyrrolo[2,3-b]pyridin-3-yl)-piperidin-1-yl]-ethyl}-piperidin-1-yl)-3-(3,4,5-trifluoro-phenyl)-propenone] | 9 nM | 3 nM | 7 nM | 
2 | O=C(c1cc2cc(Cl)ccc2o1)N1CCC(C(CO)N2CCC(c3c[nH]c4ccccc34)CC2)CC1 (stereo not drawn) [Cpd 157, (5-chloro-benzofuran-2-yl)-(4-{2-hydroxy-1-[4-(1H-indol-3-yl)-piperidin-1-yl]-ethyl}-piperidin-1-yl)-methanone] | 460 nM | 440 nM | 320 nM | 
3 | COc1ccc(C2CCN(C(CO)C3CCN(C(=O)/C=C/c4ccc(F)c(Br)c4)CC3)CC2)cc1 (stereo not drawn) [Cpd 161, (2E)-3-(3-bromo-4-fluoro-phenyl)-1-(4-{2-hydroxy-1-[4-(4-methoxy-phenyl)-piperidin-1-yl]-ethyl}-piperidin-1-yl)-propenone] | 90 nM | 50 nM | 180 nM | 
4 | COc1ccc2[nH]cc(C3CCN(C(CO)C4CCN(C(=O)/C=C/c5ccc(Cl)c(Cl)c5)CC4)CC3)c2c1 (stereo not drawn) [Cpd 162, (2E)-3-(3,4-dichloro-phenyl)-1-(4-{2-hydroxy-1-[4-(5-methoxy-1H-indol-3-yl)-piperidin-1-yl]-ethyl}-piperidin-1-yl)-propenone] | 20 nM | 7 nM | 2 nM | 
5 | COc1ccc2c(C3CCN(C(CO)C4CCN(C(=O)/C=C/c5ccc(Cl)c(Cl)c5)CC4)CC3)c[nH]c2c1 (stereo not drawn) [Cpd 163, (2E)-3-(3,4-dichloro-phenyl)-1-(4-{2-hydroxy-1-[4-(6-methoxy-1H-indol-3-yl)-piperidin-1-yl]-ethyl}-piperidin-1-yl)-propenone] | 150 nM | 30 nM | 10 nM | 
6 | COc1ccc2[nH]cc(C3CCN(C(CO)C4CCN(C(=O)/C=C/c5cc(F)cc(F)c5)CC4)CC3)c2c1 (stereo not drawn) [Cpd 164, (2E)-3-(3,5-difluoro-phenyl)-1-(4-{2-hydroxy-1-[4-(5-methoxy-1H-indol-3-yl)-piperidin-1-yl]-ethyl}-piperidin-1-yl)-propenone] | 40 nM | 10 nM | 9 nM | 
7 | COc1ccc2c(C3CCN(C(CO)C4CCN(C(=O)/C=C/c5cc(F)cc(F)c5)CC4)CC3)c[nH]c2c1 (stereo not drawn) [Cpd 165, (2E)-3-(3,5-difluoro-phenyl)-1-(4-{2-hydroxy-1-[4-(6-methoxy-1H-indol-3-yl)-piperidin-1-yl]-ethyl}-piperidin-1-yl)-propenone] | 25 nM | 80 nM | 110 nM | 
8 | COc1ccc2[nH]cc(C3CCN(C(CO)C4CCN(C(=O)/C=C/c5cc(F)c(F)c(F)c5)CC4)CC3)c2c1 (stereo not drawn) [Cpd 166, (2E)-1-(4-{2-hydroxy-1-[4-(5-methoxy-1H-indol-3-yl)-piperidin-1-yl]-ethyl}-piperidin-1-yl)-3-(3,4,5-trifluoro-phenyl)-propenone] | 30 nM | 6 nM | 8 nM | 
9 | O=C(/C=C/c1ccc(Cl)c(Cl)c1)N1CCC(C(CO)N2CCC(c3c[nH]c4ccc(F)cc34)CC2)CC1 (stereo not drawn) [Cpd 168, (2E)-3-(3,4-dichloro-phenyl)-1-(4-{1-[4-(5-fluoro-1H-indol-3-yl)-piperidin-1-yl]-2-hydroxy-ethyl}-piperidin-1-yl)-propenone] | 40 nM | 20 nM | 10 nM | 
10 | O=C(/C=C/c1cc(F)c(F)c(F)c1)N1CCC(C(CO)N2CCC(c3c[nH]c4ccc(F)cc34)CC2)CC1 (stereo not drawn) [Cpd 170, (2E)-1-(4-{1-[4-(5-fluoro-1H-indol-3-yl)-piperidin-1-yl]-2-hydroxy-ethyl}-piperidin-1-yl)-3-(3,4,5-trifluoro-phenyl)-propenone] |  |  |  | IC50 (THP-1 cells [1]; Homo sapiens, THP-1, 3 h): 9 nM; IC50 (CCR2; Inhibition of MCP-1 Binding IC50, 125I labeled MCP-1 binding to CCR2, THP-1 cells): 40 nM; IC50 (THP-1 cells [2]; Homo sapiens, THP-1, read-out: Inhibition of MCP-1 Induced Calcium Ion Influx IC50, THP-1 cells, 0.2 μM MCP-1, FLIPR): 10 nM
11 | O=C(/C=C/c1cc(F)cc(F)c1)N1CCC(C(CO)N2CCC(c3c[nH]c4ccc(F)cc34)CC2)CC1 (stereo not drawn) [Cpd 171, (2E)-3-(3,5-difluoro-phenyl)-1-(4-{1-[4-(5-fluoro-1H-indol-3-yl)-piperidin-1-yl]-2-hydroxy-ethyl}-piperidin-1-yl)-propenone] | 6 nM | 4.5 nM | 7 nM | 
12 | O=C(/C=C/c1cc(F)cc(F)c1)N1CCC(C(CO)N2CCC(c3n[nH]c4ccccc34)CC2)CC1 (stereo not drawn) [Cpd 173, (2E)-3-(3,5-difluoro-phenyl)-1-(4-{2-hydroxy-1-[4-(1H-indazol-3-yl)-piperidin-1-yl]-ethyl}-piperidin-1-yl)-propenone] |  |  |  | IC50 (THP-1 cells [1]): 130 nM; IC50 (CCR2; read-out: Inhibition of MCP-1 Binding IC50, 125I labeled MCP-1 binding to CCR2, THP-1 cells): 430 nM; Inhibition of MCP-1 Induced Calcium Ion Influx, percent inhibition (THP-1 cells [2]; test concentration of 25 μM, IC50 not obtained): 21%
13 | O=C(/C=C/c1cc(F)c(F)c(F)c1)N1CCC(C(CO)N2CCC(c3nc4ccccc4[nH]3)CC2)CC1 (stereo not drawn) [Cpd 175, (2E)-1-(4-{1-[4-(1H-benzoimidazol-2-yl)-piperidin-1-yl]-2-hydroxy-ethyl}-piperidin-1-yl)-3-(3,4,5-trifluoro-phenyl)-propenone] | 300 nM | 188 nM | 2300 nM | 
14 | O=C(/C=C/c1ccc(Cl)c(Cl)c1)N1CCC(C(CO)N2CCC(c3nc4ccccc4[nH]3)CC2)CC1 (stereo not drawn) [Cpd 176, (2E)-1-(4-{1-[4-(1H-benzoimidazol-2-yl)-piperidin-1-yl]-2-hydroxy-ethyl}-piperidin-1-yl)-3-(3,4-dichloro-phenyl)-propenone] | 90 nM | 70 nM | 2610 nM | 
15 | Nc1cc2c(C3CCN(C(C(=O)O)C4CCN(C(=O)/C=C/c5cc(F)c(F)c(F)c5)CC4)CC3)c[nH]c2cn1 (stereo not drawn) [Cpd 179, [4-(5-amino-1H-pyrrolo[2,3-c]pyridin-3-yl)-piperidin-1-yl]-{1-[(2E)-3-(3,4,5-trifluoro-phenyl)-acryloyl]-piperidin-4-yl}-acetic acid] | 140 nM | 230 nM | 2060 nM | 

More lines, main results first:

Row | IC50 (THP-1 cells [1]; Homo sapiens) | IC50 (CCR2) | IC50 (THP-1 cells [2]; [3]) | SMILES | also measured
16 | 160 nM | 270 nM | 4800 nM | O=C(c1cc2ccccc2o1)N1CCC(C(CO)N2CCC(c3c[nH]c4ccccc34)CC2)CC1 (stereo not drawn) [Cpd 154, benzofuran-2-yl-(4-{2-hydroxy-1-[4-(1H-indol-3-yl)-piperidin-1-yl]-ethyl}-piperidin-1-yl)-methanone] | 
17 | 130 nM | 207 nM | 940 nM | O=C(/C=C/c1ccc(Cl)c(Cl)c1)N1CCC(C(CO)N2CCC(c3cc[nH]n3)CC2)CC1 (stereo not drawn) [Cpd 155, (2E)-3-(3,4-dichloro-phenyl)-1-(4-{2-hydroxy-1-[4-(1H-pyrazol-3-yl)-piperidin-1-yl]-ethyl}-piperidin-1-yl)-propenone] | 
18 | 120 nM | 80 nM |  | O=C(/C=C/c1cc(F)c(F)c(F)c1)N1CCC(C(CO)N2CCC(c3cc[nH]n3)CC2)CC1 (stereo not drawn) [Cpd 156, (2E)-1-(4-{2-hydroxy-1-[4-(1H-pyrazol-3-yl)-piperidin-1-yl]-ethyl}-piperidin-1-yl)-3-(3,4,5-trifluoro-phenyl)-propenone] | inhibition at 25 µM (THP-1 cells [2]; Homo sapiens, THP-1, read-out: Inhibition of MCP-1 Induced Calcium Ion Influx, percent inhibition): 50%
19 | 100 nM | 100 nM | 140 nM | COc1ccc(C2CCN(C(CO)C3CCN(C(=O)/C=C/c4cc(F)c(F)c(F)c4)CC3)CC2)cc1 (stereo not drawn) [Cpd 158, (2E)-1-(4-{2-hydroxy-1-[4-(4-methoxy-phenyl)-piperidin-1-yl]-ethyl}-piperidin-1-yl)-3-(3,4,5-trifluoro-phenyl)-propenone] | 
20 | 860 nM | 270 nM | 2100 nM | COc1ccc(C2CCN(C(CO)C3CCN(C(=O)/C=C/c4ccccc4)CC3)CC2)cc1 (stereo not drawn) [Cpd 159, (2E)-1-(4-{2-hydroxy-1-[4-(4-methoxy-phenyl)-piperidin-1-yl]-ethyl}-piperidin-1-yl)-3-phenyl-propenone] | 
21 | 55 nM | 57 nM | 170 nM | O=C(/C=C/c1ccc(F)cc1)N1CCC(C(CO)N2CCC(c3c[nH]c4ccc(F)cc34)CC2)CC1 (stereo not drawn) [Cpd 169, (2E)-1-(4-{1-[4-(5-fluoro-1H-indol-3-yl)-piperidin-1-yl]-2-hydroxy-ethyl}-piperidin-1-yl)-3-(4-fluoro-phenyl)-propenone] | 
22 | 30 nM | 32 nM | 20 nM | O=C(/C=C/c1ccc(F)c(Br)c1)N1CCC(C(CO)N2CCC(c3c[nH]c4ccc(F)cc34)CC2)CC1 (stereo not drawn) [Cpd 172, (2E)-3-(3-bromo-4-fluoro-phenyl)-1-(4-{1-[4-(5-fluoro-1H-indol-3-yl)-piperidin-1-yl]-2-hydroxy-ethyl}-piperidin-1-yl)-propenone] | 
23 | 180 nM | 90 nM | 2350 nM | Nc1ccc2[nH]cc(C3CCN(C(C(=O)O)C4CCN(C(=O)/C=C/c5cc(F)c(F)c(F)c5)CC4)CC3)c2n1 (stereo not drawn) [Cpd 178, [4-(5-amino-1H-pyrrolo[3,2-b]pyridin-3-yl)-piperidin-1-yl]-{1-[(2E)-3-(3,4,5-trifluoro-phenyl)-acryloyl]-piperidin-4-yl}-acetic acid] | 
